Data: patent US20110039762A1, “TARGETED ANTIMICROBIAL MOIETIES” (C3 JIAN, INC., priority 2009, published 2011)
“Also recorded” adds a separate entry of the source.

Assays:
E. faecalis = test: Kill or inhibit growth/proliferation; morphology, biofilm and growth disruption (Tables 5, 6); type: cell-based, Enterococcus faecalis; parameters: key: A: Peptide aggregates; B: Less hyphal formation; Clumps; Diffuse clumps and small polyps; F: Diffuse growth; H: Thin; I: Growth inhibition; Microcolony formation; Rippled; Small polyps; Thick; W: Halo formation on top, microlonies on bottom; note: test concentration or dose not given here
MRSA = test: as above; type: cell-based, Methicillin-resistant Staphylococcus aureus; parameters: key: A: Peptide aggregates; B: Less hyphal formation; Clumps; Diffuse clumps and small polyps; F: Diffuse growth; H: Thin; I: Growth inhibition; Microcolony formation; Rippled; Small polyps; Thick; W: Halo formation on top, microlonies on bottom
S. epidermidis = test: as above; type: cell-based, Staphylococcus epidermidis; parameters: key: A: Peptide aggregates; B: Less hyphal formation; Clumps; Diffuse clumps and small polyps; F: Diffuse growth; H: Thin; I: Growth inhibition; Microcolony formation; Rippled; Small polyps; Thick; W: Halo formation on top, microlonies on bottom; note: test concentration or dose not given here
S. pneumoniae = test: as above; type: cell-based, Streptococcus pneumoniae; parameters: key: A: Peptide aggregates; B: Less hyphal formation; Clumps; Diffuse clumps and small polyps; F: Diffuse growth; H: Thin; I: Growth inhibition; Microcolony formation; Rippled; Small polyps; Thick; W: Halo formation on top, microlonies on bottom; note: test concentration or dose not given here
E. coli = test: as above; type: cell-based, Escherichia coli; parameters: key: A: Peptide aggregates; B: Less hyphal formation; Clumps; Diffuse clumps and small polyps; F: Diffuse growth; H: Thin; I: Growth inhibition; Microcolony formation; Rippled; Small polyps; Thick; W: Halo formation on top, microlonies on bottom; note: test concentration or dose not given here
M. luteus = test: as above; type: cell-based, Micrococcus luteus; parameters: key: A: Peptide aggregates; B: Less hyphal formation; Clumps; Diffuse clumps and small polyps; F: Diffuse growth; H: Thin; I: Growth inhibition; Microcolony formation; Rippled; Small polyps; Thick; W: Halo formation on top, microlonies on bottom
[1] = test system: microorganisms (e.g., bacteria, yeasts, fungi); test: Targeting peptide binding to target microorganisms (Table 3); details: microorganism(s) the targeting peptide binds, preferably 1x PBS
microorganisms = test: Peptides having multiple activities (targeting/binding, antimicrobial, growth or phenotype altering)
From the text: In certain embodiments, peptides described herein can have multiple activities. Thus for example, a peptide can have both binding/targeting activity and antimicrobial activity. Such peptides can be used, e.g., in a chimeric construct, for any or all of these properties. Thus, for example, a peptide designated “B” in Table 8 can be used as a targeting peptide. If it is also designated G or M it can also be used for antimicrobial activity.

[2] = binding in aqueous buffers depending on peptide solubility
[3] = peptide binding conducted in aqueous buffers varied by peptide solubility
Throughout, for Organism, effect: test concentration or dose not given here.

Row | Substance | Organism, effect (E. faecalis) | Organism, effect (MRSA) | Organism, effect (S. epidermidis) | Organism, effect (S. pneumoniae) | Organism, effect (E. coli) | Organism, effect (M. luteus) | Target(s) [1, 2] | Activities (microorganisms) | Target(s) [1, 3]
1 | KTPNDKIHKTIIIKHIIL [PF-533] | E. faecalis (C) | MRSA (H) | S. epidermidis (H) | S. pneumoniae (C) | E. coli (R) | – | – | – | –
2 | PF-212: peptide having multiple activities (NDSKASN; Peptide with targeting and/or antimicrobial activity) | – | – | – | – | – | M. luteus (M) | M. luteus; also recorded: P. aeruginosa | G B | –
3 | PF-215: peptide having multiple activities (ELKITNYNVNTVLYRYYKWGNDLCE; Peptide with targeting and/or antimicrobial activity) | – | – | – | – | – | M. luteus (T) | S. epidermidis; also recorded: M. luteus; also recorded: P. aeruginosa; also recorded: A. baumannii | G B | –
4 | PF-224: peptide having multiple activities (DYFYITLSQKNTF; Peptide with targeting and/or antimicrobial activity) | – | – | – | – | – | M. luteus (T) | S. epidermidis; also recorded: P. aeruginosa; also recorded: A. baumannii | G B | –
5 | PF-234: peptide having multiple activities (RTPYILRS; Peptide with targeting and/or antimicrobial activity) | – | – | – | – | – | M. luteus (T) | S. epidermidis; also recorded: M. luteus | G B | –
6 | PF-235: peptide having multiple activities (GIPFSKPHKRQVNYMKSDVLAYIEQNKMAHTA; Peptide with targeting and/or antimicrobial activity) | – | – | – | – | – | M. luteus (T) | S. epidermidis; also recorded: M. luteus | G B | –
7 | PF-250 (SEDIFGRLANEKANGLEELRKIRLKQ; Peptide with targeting and/or antimicrobial activity) | – | – | – | – | – | M. luteus (T) | – | – | –
8 | PF-264 (MQSLSNRQSLIASYILMGIFLSFGYPPASLSKFFCRLSHL; Peptide with targeting and/or antimicrobial activity) | – | – | – | – | – | M. luteus (H) | – | – | –
9 | PF-274 (SIQEAEKIIKNDPFYIHDVADYDFMWFEPSKSLEEIKEFV; Peptide with targeting and/or antimicrobial activity) | – | – | – | – | – | M. luteus (M) | – | – | –
10 | PF-381: peptide having multiple activities (chain 1 QGANPCQQVGFTVNDPDCRLAKTV; chain 2 QGANPCQQVGFTVNDPDCRLAKTV; Peptide with targeting and/or antimicrobial activity) | E. faecalis (C) | MRSA (C) | S. epidermidis (C) | – | E. coli (R) | – | E. coli; also recorded: P. aeruginosa; also recorded: C. jejuni | G B | –
11 | PF-396: peptide having multiple activities (LIYTILASLGVLTVLQAILGREPKAVKA; Peptide with targeting and/or antimicrobial activity) | E. faecalis (C) | MRSA (C) | S. epidermidis (S) | – | E. coli (C) | – | – | G B | S. epidermidis; also recorded: E. coli; also recorded: P. aeruginosa; also recorded: C. albicans; also recorded: E. faecalis; also recorded: C. jeikeium
12 | PF-401: peptide having multiple activities (YWLSRVTTGHSFAFEKPVPLSLTIK; Peptide with targeting and/or antimicrobial activity) | E. faecalis (C) | MRSA (C) | S. epidermidis (C) | – | E. coli (R) | – | – | G B | S. epidermidis and E. coli and P. aeruginosa and MRSA and E. faecalis and C. jejuni
13 | PF-439: peptide having multiple activities (chain 1 RVLVLKKFHGIMDGNRNVAVFFVGQ; chain 2 RVLVLKKFHGIMDGNRNVAVFFVGQ; Peptide with targeting and/or antimicrobial activity) | E. faecalis (C) | MRSA (M) | S. epidermidis (C) | S. pneumoniae (R) | E. coli (R) | – | – | G B | –
14 | PF-440: peptide having multiple activities (chain 1 MFIISPDLFNIAVILYILFFIHDILLLILS; chain 2 MFIISPDLFNIAVILYILFFIHDILLLILS; Peptide with targeting and/or antimicrobial activity) | E. faecalis (C) | MRSA (C) | S. epidermidis (C) | S. pneumoniae (R) | E. coli (R) | – | – | G B | –
15 | PF-444: peptide having multiple activities (chain 1 MAAKLWEEGKMVYASSASMTKRLKLAMSKV; chain 2 MAAKLWEEGKMVYASSASMTKRLKLAMSKV; Peptide with targeting and/or antimicrobial activity) | E. faecalis (C) | MRSA (C) | S. epidermidis (C) | S. pneumoniae (R) | E. coli (R) | – | – | G B | M. luteus; also recorded: C. albicans; also recorded: S. pneumoniae; also recorded: C. jeikeium
16 | PF-451: peptide having multiple activities (chain 1 MVNYIIGSYMLYREQNNNEALRKFDITLAM; chain 2 MVNYIIGSYMLYREQNNNEALRKFDITLAM; Peptide with targeting and/or antimicrobial activity) | E. faecalis (C) | MRSA (C) | S. epidermidis (C) | S. pneumoniae (C) | E. coli (R) | – | – | G B | –
17 | PF-452: peptide having multiple activities (chain 1 MNNWIKVAQISVTVINEVIDIMKEKQNGGK; chain 2 MNNWIKVAQISVTVINEVIDIMKEKQNGGK; Peptide with targeting and/or antimicrobial activity) | E. faecalis (C) | MRSA (C) | S. epidermidis (C) | S. pneumoniae (R) | E. coli (C) | – | – | G B | M. luteus; also recorded: P. aeruginosa; also recorded: C. albicans; also recorded: S. pneumoniae; also recorded: E. faecalis; also recorded: C. jeikeium; also recorded: M. smegmatis
18 | PF-460: peptide having multiple activities (chain 1 MEHVLPFQNTPPNIVIIYKDFTHLKSITFS; chain 2 MEHVLPFQNTPPNIVIIYKDFTHLKSITFS; Peptide with targeting and/or antimicrobial activity) | E. faecalis (C) | MRSA (C) | S. epidermidis (C) | S. pneumoniae (R) | E. coli (H) | – | – | G B | –
19 | PF-518: peptide having multiple activities (chain 1 SFYSKYSRYIDNLAGAIFLFF; chain 2 SFYSKYSRYIDNLAGAIFLFF; Peptide with targeting and/or antimicrobial activity) | E. faecalis (C) | MRSA (C) | S. epidermidis (C) | S. pneumoniae (M) | E. coli (R) | – | – | G B | S. epidermidis and E. coli and P. aeruginosa and C. albicans and MRSA and S. pneumoniae and E. faecalis
20 | PF-534 (KYFHLFYHNIIHYSKQHLSLKVDFKN; Peptide with targeting and/or antimicrobial activity) | E. faecalis (C) | MRSA (C) | S. epidermidis (C) | S. pneumoniae (R) | E. coli (R) | – | – | – | –
